A word on the IC50: it is the concentration at which inhibition is half-maximal. For orientation: Kd means the concentration at which binding is half-saturated. Read a high Kd as lower affinity.

A short description of assay [1]: Induction of anti-CD3/CD28 antibodies-stimulated human T cell activation at 0.3 uM assessed fold increase in CD25 expression measured by ELISA assay. Format: functional, T cell line.
A short description of assay [2]: Induction of anti-CD3 antibodies-stimulated human T cell activation at 1 uM assessed fold increase in IL-2 secretion measured by ELISA assay. Note: reference of the scale not given here. It counts as functional, T cell line. On the technique in general: ELISA stands for enzyme-linked immunosorbent assay.
Assay [3] concerns the target T1, E3 ubiquitin-protein ligase CBL-B (Homo sapiens, UniProt Q13191). The assay can be described thus: Inhibition of N-terminal Avi-tagged human CBL-B (36 to 427 residues) incubated with 60 nM Src kinase for 1.5 hrs followed by incubation with fluorescently labeled UbcH5B-Ub for 1 hr and measured by TR-FRET assay. Format: single protein.
A short description of assay [4]: Induction of anti-CD3/CD28 antibodies-stimulated human T cell activation at 0.3 uM assessed fold increase in IL-2 secretion measured by ELISA assay. It counts as functional, T cell line.
Assay [5] in a line: Induction of anti-CD3 antibodies-stimulated human T cell activation at 1 uM assessed fold increase in CD25 expression measured by ELISA assay. Note: reference of the scale not given here. It counts as functional, T cell line.
The nature of assay [6]: Induction of anti-CD3 antibodies-stimulated human CD8+ T cell activation in immunocompetent mouse assessed fold increase in CD25 expression at 90 mg/kg, po administered twice a day. Note: reference of the scale not given here. Format: functional.
A short description of assay [7]: Induction of anti-CD3/CD28 antibodies-stimulated human T cell activation at 1 uM assessed fold increase in IL-2 secretion measured by ELISA assay. Format: functional, T cell line.
A short description of assay [8]: Induction of anti-CD3/CD28 antibodies-stimulated human T cell activation at 1 uM assessed fold increase in CD25 expression measured by ELISA assay. It counts as functional, T cell line.
The nature of assay [9]: Induction of anti-CD3 antibodies-stimulated human CD4+ T cell activation in immunocompetent mouse assessed fold increase in CD25 expression at 135 mg/kg, po administered twice a day. Note: reference of the scale not given here. It counts as functional.
A short description of assay [10]: Induction of anti-CD3/CD28 antibodies-stimulated human T cell activation at 4 uM assessed fold increase in CD25 expression measured by ELISA assay. Format: functional, T cell line.
The nature of assay [11]: Induction of activation of human CD56+ CD3- NK cells co-cultured with human K562 cells in 1:1 ratio and assessed as increase in IFN-gamma secretion at 0.625 uM measured by ELISA assay. It counts as functional, Natural killer cell.
Assay [12] is described as follows: Induction of anti-CD3 antibodies-stimulated human exhausted T cell activation assessed fold increase in IFN-gamma secretion measured by ELISA assay. Note: reference of the scale not given here. Format: functional, T cell line.
Assay [13] is described as follows: Induction of allogenic human T cell activation at 3 uM assessed fold increase in cell proliferation. Format: functional, T cell line.
The nature of assay [14]: Induction of anti-CD3/CD28 antibodies-stimulated human T cell activation at 4 uM assessed fold increase in IL-2 secretion measured by ELISA assay. It counts as functional, T cell line.
A short description of assay [15]: Induction of anti-CD3 antibodies-stimulated human exhausted T cell activation assessed fold increase in GM-CSF secretion measured by ELISA assay. Note: reference of the scale not given here. It counts as functional, T cell line.
For assay [16], the system named is B cell. The assay can be described thus: Induction of anti-IgM-stimulated human CD20+ B cell activation at 10 to 1000 uM assessed as increase in CD69 expression measured as mean fluorescence intensity AUC by flow cytometry analysis. Format: functional, cell-based. As to conditions: dose 10-1000 µM.
Assay [17] can be described thus: Induction of anti-CD3 antibodies-stimulated human exhausted T cell activation assessed fold increase in IL-2 secretion measured by ELISA assay. Note: reference of the scale not given here. Format: functional, T cell line.
A short description of assay [18]: Induction of anti-CD3 antibodies-stimulated human T cell activation at 8 uM assessed fold increase in IL-2 secretion measured by ELISA assay. Note: reference of the scale not given here. It counts as functional, T cell line.
Assay [19] in a line: Induction of anti-CD3/CD28 antibodies-stimulated human anergic T cell activation at 1.11 uM assessed fold increase in IFN-gamma secretion measured by ELISA assay. It counts as functional, T cell line.
The nature of assay [20]: Induction of anti-CD3 antibodies-stimulated human exhausted CD8+ T cell activation assessed fold increase in CTLA4 expression measured by flow cytometry analysis. Note: reference of the scale not given here. It counts as functional, T cell line.
Assay [21] can be described thus: Induction of activation of human CD56+ CD3- NK cells co-cultured with human K562 cells in 1:1 ratio and assessed as increase in TNF-alpha secretion at 10 uM measured by ELISA assay. Format: functional, Natural killer cell.
A short description of assay [22]: Induction of activation of human CD56+ CD3- NK cells co-cultured with human K562 cells in 1:1 ratio and assessed as increase in IFN-gamma secretion at 10 uM measured by ELISA assay. Format: functional, Natural killer cell.
The nature of assay [23]: Induction of allogenic human T cell activation at 10 uM assessed fold increase in cell proliferation. It counts as functional, T cell line.
Assay [24] in a line: Induction of activation of human CD56+ CD3- NK cells co-cultured with human K562 cells in 1:1 ratio and assessed as increase in IFN-gamma secretion at 2.5 uM measured by ELISA assay. Format: functional, Natural killer cell.
Assay [25] is described as follows: Induction of anti-CD3/CD28 antibodies-stimulated human anergic T cell activation at 0.37 uM assessed fold increase in IFN-gamma secretion measured by ELISA assay. It counts as functional, T cell line.
Assay [26] is described as follows: Induction of anti-CD3 antibodies-stimulated human T cell activation at 8 uM assessed fold increase in CD25 expression measured by ELISA assay. Note: reference of the scale not given here. It counts as functional, T cell line.
Assay [27] can be described thus: Induction of anti-CD3 antibodies-stimulated human exhausted CD4+ T cell activation assessed fold increase in CTLA4 expression measured by flow cytometry analysis. Note: reference of the scale not given here. It counts as functional, T cell line. Background: In flow cytometry, cells or beads pass a laser one at a time.
A short description of assay [28]: Induction of activation of human CD56+ CD3- NK cells co-cultured with human K562 cells in 1:1 ratio and assessed as increase in TNF-alpha secretion at 0.625 uM measured by ELISA assay. Format: functional, Natural killer cell.
Assay [29] in a line: Induction of activation of human CD56+ CD3- NK cells co-cultured with human K562 cells in 1:1 ratio and assessed as increase in TNF-alpha secretion at 2.5 uM measured by ELISA assay. It counts as functional, Natural killer cell.
Assay [30] is described as follows: Induction of anti-CD3/CD28 antibodies-stimulated human anergic T cell activation at 10 uM assessed fold increase in IFN-gamma secretion measured by ELISA assay. Format: functional, T cell line.
In assay [31] the target is T1, E3 ubiquitin-protein ligase CBL-B. The assay can be described thus: Binding affinity towards N-terminal biotinylated Avi-tagged human CBL-B (36 to 427 residues) measured by surface plasmon resonance assay. For orientation: Surface plasmon resonance follows binding to a sensor surface in real time, without labels.

Molecules are shown by their SMILES.

T1 sequence (Q13191 whole entry, the tested form may be a part): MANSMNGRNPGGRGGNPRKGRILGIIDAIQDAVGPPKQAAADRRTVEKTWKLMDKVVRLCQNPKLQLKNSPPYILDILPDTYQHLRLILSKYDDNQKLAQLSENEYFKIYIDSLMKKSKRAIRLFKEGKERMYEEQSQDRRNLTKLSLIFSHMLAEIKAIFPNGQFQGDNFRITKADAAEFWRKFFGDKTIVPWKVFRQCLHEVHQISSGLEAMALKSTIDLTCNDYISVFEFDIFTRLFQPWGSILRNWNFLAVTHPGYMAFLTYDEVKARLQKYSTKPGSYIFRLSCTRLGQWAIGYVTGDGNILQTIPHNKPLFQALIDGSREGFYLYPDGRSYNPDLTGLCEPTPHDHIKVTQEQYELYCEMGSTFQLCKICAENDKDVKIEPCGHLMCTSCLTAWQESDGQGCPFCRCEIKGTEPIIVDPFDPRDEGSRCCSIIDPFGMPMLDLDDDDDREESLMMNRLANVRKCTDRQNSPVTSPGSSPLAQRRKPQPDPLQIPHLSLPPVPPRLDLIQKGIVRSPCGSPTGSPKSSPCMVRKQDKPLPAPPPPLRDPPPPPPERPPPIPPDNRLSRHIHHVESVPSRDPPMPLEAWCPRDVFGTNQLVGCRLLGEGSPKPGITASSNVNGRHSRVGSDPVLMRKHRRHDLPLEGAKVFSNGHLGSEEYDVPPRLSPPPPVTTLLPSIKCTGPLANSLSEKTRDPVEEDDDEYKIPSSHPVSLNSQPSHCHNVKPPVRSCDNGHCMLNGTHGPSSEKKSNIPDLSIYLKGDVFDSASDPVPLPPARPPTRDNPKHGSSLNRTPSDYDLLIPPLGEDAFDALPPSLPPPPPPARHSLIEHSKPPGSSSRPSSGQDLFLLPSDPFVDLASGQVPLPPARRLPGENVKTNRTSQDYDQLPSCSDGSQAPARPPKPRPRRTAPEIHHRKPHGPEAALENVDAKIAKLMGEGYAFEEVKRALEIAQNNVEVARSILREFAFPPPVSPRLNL

As for `C[C@H](c1cc2c(c(C(F)(F)F)c1)CN(c1cccc(C3(Cc4nncn4C)COC3)c1)C2=O)N1CCC(C)(F)CC1`, the “fold change (FC)” value is reported as “>=1.76” in assay [1]; “>=0.201” in assay [2]; “>=7.5” in assay [4]; “>=1.001” in assay [5]; 1 in assay [6]; “>=7.5” in assay [7]. The “fold change (FC)” value in assay [8] is recorded as “>=1.76”; in assay [9], above 2.5. The IC50 in [3] is below 100 nM.

The molecule `Cn1cnnc1CC1(c2cccc(N3Cc4c(cc(CN5CCC(F)CC5)cc4C(F)(F)F)C3=O)c2)COC1` showed an IC50 in assay [3] below 100 nM. Moreover, the “fold change (FC)” value in assay [6] is reported as 1; in assay [9] it was 1.51.

For `C[C@H](Cc1nncn1C)c1ccnc(NC(=O)c2cccc(C(F)(F)F)n2)c1`, the “fold change (FC)” value in [10] was 1.01; in assay [11] it was 1.01; in [1] it was 1.01; in assay [12] it was “<=1.4”; in [2], “<=0.05”; in assay [13], “<=2”. In addition, the “fold change (FC)” value is “>=7.5” in [14]; “<=1.4” in assay [15]; 2.51 in assay [4]; “<=0.6” in assay [5]; “<=2.5” in [17]; 2.51 in [7]. Besides, the “fold change (FC)” value in assay [18] is on record as 0.051; in [8], 1.01; in assay [19] it was “<=2.5”; in [20] it was “<=1.4”; in [21] it was 1.01; in [22], 2.01. Also, the “fold change (FC)” value in assay [23] was “<=2”; in assay [24], “<=1”; in assay [25], “<=2.5”; in assay [26], 0.801; in assay [27], “<=1.4”; in assay [28], 1.01. Moreover, the “fold change (FC)” value is 1.01 in [29] and “<=2.5” in assay [30]. In addition, the AUC in [16] is 0.5.

Regarding `Cn1cnnc1C(F)(F)[C@](C)(F)c1cccc(N2Cc3c(cc(N4CCNCC4)cc3C(F)(F)F)C2=O)c1`, the “fold change (FC)” value is 1.51 in assay [10]; 1.01 in assay [11]; 1.31 in assay [1]; 1.41 in assay [12]; “>=0.201” in [2]; “<=2” in [13]. The “fold change (FC)” value is on record as “>=7.5” in [14]; “<=1.4” in assay [15]; 2.51 in assay [4]; “>=1.001” in [5]; above 3.01 in assay [17]; “>=7.5” in assay [7]. Also, the “fold change (FC)” value in [18] was 0.051; in assay [8], 1.51; in [19], 2.51; in assay [21], 2.01; in [22], 2.01; in assay [23], “<=2”. Further, the “fold change (FC)” value is given as 2.01 in assay [24]; “<=2.5” in assay [25]; 0.801 in [26]; 2.01 in [28]; 2.01 in assay [29]; 2.51 in assay [30]. This molecule gave an IC50 in [3] below 100 nM. Moreover, in [16], the AUC came to 0.5.

Turning to `C[C@H](Cc1nncn1C)c1cccc(N2Cc3c(cc(-n4cccn4)cc3C(F)(F)F)C2=O)c1`, the “fold change (FC)” value in assay [10] was 1.51; in [1] it was 1.31; in assay [2], “>=0.201”; in assay [14] it was “>=7.5”; in assay [4] it was 2.51; in assay [5], “>=1.001”. For the same molecule, the “fold change (FC)” value in [7] is given as “>=7.5”; in [18] it was “>=0.201”; in assay [8], 1.51; in assay [26], “>=1.001”. In addition, the IC50 in assay [3] was below 100 nM. In assay [31], the Kd is below 100 nM.

The values are drawn from ChEMBL document CHEMBL5050844 (2019).
